Results published in US20160257651A1, “NOVEL COMPOUND WITH ANTIBACTERIAL ACTIVITY” (priority 2013, published 2016).
≈ marks a conversion by molar mass, not a printed value. Read-outs that look alike come from different tables or passages of the source.

Tests used:
S. pneumoniae BCLSP37 = experiment: MIC against pneumococcus, CAMHB with 5 mass % LHB; type: cell-based, Streptococcus pneumoniae; conditions: Streptococcus pneumoniae, BCLSP37, S. pneumoniae BCLSP37, PSSP, quinolone-resistant; ParC 79Phe, GyrA 85Lys; read-out: MIC
Method: (§1) The S. pneumoniae strains used for this test belong to any one of the categories of penicillin-susceptible pneumococcus (penicillin-susceptible Streptococcus pneumoniae, PSSP), penicillin-intermediate pneumococcus (penicillin-intermediate Streptococcus pneumoniae, PISP), and penicillin-resistant pneumococcus (penicillin-resistant Streptococcus pneumoniae, PRSP).
(§2) The lysed horse blood was prepared by adding sterilized water to horse sterile defibered blood (produced by Nippon Bio-Supp. Center) at a ratio of 1:1, subjecting the mixture to freezing and thawing 5 times, then centrifuging the mixture twice at 10,000 rpm for 20 minutes, and filtering the supernatant through a filter.
(§3) The S. pneumoniae strains mentioned in Table 11 were each cultured overnight at 37° C. on a blood agar medium as stationary culture. The blood agar medium was prepared by adding 5 mass % ovine sterile defibered blood (produced by Nippon Bio-Supp. Center) to a heart infusion agar medium (produced by EIKEN CHEMICAL). Each S. pneumoniae strain cultured overnight at 37° C. as stationary culture was further subcultured overnight at 37° C. on fresh blood agar medium as stationary culture. After completion of the culture, cells of each pneumococcus strain were collected with a swab, and suspended in physiological saline, and the suspension was adjusted with physiological saline to show absorbance of 0.08 to 0.13 at 625 nm as measured with an absorbance meter (produced by Amersham), and further diluted 200 times with CAMHB containing 5 mass % LHB.
(§4) In Table 11, the amino acid substitution mutations in QRDR of the strains are underlined.

S. pneumoniae KBSP11 = experiment: MIC against pneumococcus, CAMHB with 5 mass % LHB; type: cell-based, Streptococcus pneumoniae; conditions: Streptococcus pneumoniae
Method: as §1, §2, §3, §4

E. faecalis 36-15722 = experiment: MIC against Enterococcus bacteria; type: cell-based, Enterococcus faecalis; conditions: Enterococcus faecalis, 3615722; E. faecalis 36-15722, quinolone-resistant; ParC 80Ile, GyrA 84Ile; read-out: MIC
Method: Antibacterial activities of the compound J-131CP against Enterococcus bacteria (Enterococcus faecium and Enterococcus faecalis) were examined by the following methods.
(§5) The compound J-131CP and quinolones were prepared in the same manner as that of Test Example 1-1.
Cell suspensions were prepared in the same manner as that of Test Example 1-1 described in the section of measurement of MIC in Test Example 1-1, except that the Enterococcus bacterium strains mentioned in Table 8 were used instead of Staphylococcus aureus, and MICs of the compound J-131CP and quinolones as control were determined for the strains in the same manner as that of Test Example 1-1 described in the section of measurement of MIC in Test Example 1-1. In Table 8, the amino acid substitution mutations in QRDR of the strains are underlined.

S. aureus Mu50 NR1-1 = experiment: microbe, parasite or virus in culture; type: cell-based; conditions: Staphylococcus aureus, MU50NR11
Method: (§6) Then, the cell suspension was diluted 500 times with CAMHB mentioned above.

S. aureus Mu50 = experiment: microbe, parasite or virus in culture; type: cell-based, Staphylococcus aureus; conditions: for MIC ratio (Mu50 MIC/FDA209P MIC): MIC for S. aureus Mu50 / MIC for S. aureus FDA209P; for MIC: S. aureus Mu50, quinolone-resistant MRSA, ParC S80F, GyrA S84L
Method: as §6

[1] = system: S. aureus FDA209P (ATCC 6538P); experiment: microbe, parasite or virus in culture; type: cell-based, Staphylococcus aureus; conditions: Staphylococcus aureus, ATCC 6538P / FDA209P / MSSA, quinolone-susceptible MSSA, ParC 80S, GyrA 84S, read-out: MIC
Method: as §6

[2] = system: Staphylococcus aureus NCTC8325 (MSSA); experiment: MIC, S. aureus categories (Test Example 3); type: cell-based; conditions: strain NCTC8325, MSSA
Method: (§7) The antibacterial activities of the compound J-131CP against Staphylococcus aureus strains belonging to the five categories of Staphylococcus aureus, i.e., MSSA, MRSA, community-acquired-infection type MRSA (CA-MRSA), VISA, and VRSA, were investigated.
as §5
(§8) Cell suspensions were prepared in the same manner as that of Test Example 1-1 described in the section of measurement of MIC in Test Example 1-1, except that the strains mentioned in Table 6 were used as Staphylococcus aureus, and MICs of the compound J-131CP and quinolones as the control were determined for the strains in the same manner as that of Test Example 1-1. In Table 6, the amino acid substitution mutations in QRDR of the strains are underlined.

[3] = system: Staphylococcus aureus ATCC29213 (MSSA); experiment: MIC, S. aureus categories (Test Example 3); type: cell-based; conditions: strain ATCC29213, MSSA
Method: as §7, §5, §8

[4] = system: Staphylococcus aureus BR2 (VISA); experiment: MIC, S. aureus categories (Test Example 3); type: cell-based
Method: as §7, §5, §8

[5] = system: Staphylococcus aureus KSA36 (MRSA); experiment: MIC, S. aureus categories (Test Example 3); type: cell-based
Method: as §7, §5, §8

[6] = system: Staphylococcus aureus USA300FPR (CA-MRSA); experiment: MIC, S. aureus categories (Test Example 3); type: cell-based
Method: as §7, §5, §8

[7] = system: Staphylococcus aureus MI (VISA); experiment: MIC, S. aureus categories (Test Example 3); type: cell-based
Method: as §7, §5, §8

[8] = system: Staphylococcus aureus VRS5 (VRSA); experiment: MIC, S. aureus categories (Test Example 3); type: cell-based
Method: as §7, §5, §8

[9] = system: Staphylococcus aureus MW2 (CA-MRSA); experiment: MIC, S. aureus categories (Test Example 3); type: cell-based; conditions: strain MW2, CA-MRSA
Method: as §7, §5, §8

[10] = system: Staphylococcus aureus VRS1 (VRSA); experiment: MIC, S. aureus categories (Test Example 3); type: cell-based
Method: as §7, §5, §8

[11] = system: Staphylococcus aureus VRS3a (VRSA); experiment: MIC, S. aureus categories (Test Example 3); type: cell-based
Method: as §7, §5, §8

[12] = S. pneumoniae KBSP11, PRSP, quinolone-susceptible, read-out: MIC
[13] = Staphylococcus aureus, read-out: MIC

SMILES | MIC (S. pneumoniae BCLSP37) | MIC (E. faecalis 36-15722) | MIC (S. aureus Mu50 NR1-1) | MIC ratio (Mu50 MIC/FDA209P MIC) (S. aureus Mu50) | MIC (S. aureus Mu50; Staphylococcus aureus, MRSA) | MIC [1] | MIC ([2]; Staphylococcus aureus) | MIC ([3]; read-out: MIC) | MIC [4] | MIC [5] | MIC [6] | MIC [7] | MIC [8] | MIC [10] | MIC [11] | MIC (S. pneumoniae KBSP11; [12]) | MIC (S. aureus Mu50) | MIC [9, 13] | also measured
O=c1cc(CO)c2cc(F)c(-c3ccc(O)cc3)cc2n1C1CC1 [J-131CP, 1-cyclopropyl-6-fluoro-4-(hydroxymethyl)-7-(4-hydroxyphenyl)-1,2-dihydroquinolin-2-one] | 4 µg/mL (≈ 12.3 µM) | 1 µg/mL (≈ 3.07 µM) | 0.25 µg/mL (≈ 0.768 µM) | ≦0.25 | ≤ 0.06 µg/mL | 0.25 µg/mL (≈ 0.768 µM) | 0.125 to 0.25 µg/mL (≈ 0.384 to 0.768 µM) | 0.25 µg/mL (≈ 0.768 µM) | ≤ 0.06 µg/mL | ≤ 0.06 µg/mL | ≤ 0.06 µg/mL | ≤ 0.06 µg/mL | ≤ 0.06 µg/mL | ≤ 0.06 µg/mL | ≤ 0.06 µg/mL |  |  |  | MIC (S. pneumoniae KBSP11; PRSP): 2 µg/mL (≈ 6.15 µM); MIC [2]: 0.125 µg/mL (≈ 0.384 µM); MIC [3]: 0.125 to 0.25 µg/mL (≈ 0.384 to 0.768 µM); MIC ([9]; Staphylococcus aureus, MRSA): 0.125 to 0.25 µg/mL (≈ 0.384 to 0.768 µM); MIC [9]: 0.125 µg/mL (≈ 0.384 µM)
CC1COc2c(N3CCN(C)CC3)c(F)cc3c(=O)c(C(=O)O)cn1c23 (centres unmarked) [OFX, ofloxacin] | 32 µg/mL (≈ 88.6 µM) | 64 µg/mL (≈ 177 µM) | 2 µg/mL (≈ 5.53 µM) | 128 | 8 to 128 µg/mL (≈ 22.1 to 354 µM) | 0.125 µg/mL (≈ 0.346 µM) |  | 0.25 µg/mL (≈ 0.692 µM) | 64 µg/mL (≈ 177 µM) | > 128 µg/mL | 16 µg/mL (≈ 44.3 µM) | 128 µg/mL (≈ 354 µM) | > 128 µg/mL | 32 µg/mL (≈ 88.6 µM) | 32 µg/mL (≈ 88.6 µM) | 0.5 µg/mL (≈ 1.38 µM) | 16 µg/mL (≈ 44.3 µM) | 0.5 µg/mL (≈ 1.38 µM) | MIC [2, 13]: 0.25 µg/mL (≈ 0.692 µM)
C[C@@H]1CN(c2c(F)c(N)c3c(=O)c(C(=O)O)cn(C4CC4)c3c2F)C[C@H](C)N1 [SPX, sparfloxacin] | > 32 µg/mL | 64 µg/mL (≈ 163 µM) | 0.25 µg/mL (≈ 0.637 µM) | ≧256 | 8 to 128 µg/mL (≈ 20.4 to 326 µM) | ≤ 0.06 µg/mL | 0.125 µg/mL (≈ 0.319 µM) | ≤ 0.06 µg/mL | 32 µg/mL (≈ 81.5 µM) | 128 µg/mL (≈ 326 µM) | 8 µg/mL (≈ 20.4 µM) | 32 µg/mL (≈ 81.5 µM) | 128 µg/mL (≈ 326 µM) | 8 µg/mL (≈ 20.4 µM) | 16 µg/mL (≈ 40.8 µM) | 0.25 µg/mL (≈ 0.637 µM) | 16 µg/mL (≈ 40.8 µM) | ≤ 0.06 µg/mL | 
